Results from US20240376163A1, “PEPTIDE FOR INHIBITING CALCINEURIN AND USE THEREOF” (Seoul National University R&DB Foundation, priority 2023, published 2024).

Test system: Jurkat T cells
Assay: mRNA sequencing of activated Jurkat T cells
Type: cell-based, human
Conditions: Jurkat T cells, P + I

PEITVTPPTP [CABIN1-L-1-2]
ABTB2 FPKM: 6.382 FPKM | ACAP1 FPKM: 26.535 FPKM | ACSF3 FPKM: 15.621 FPKM | ADA FPKM: 73.254 FPKM | ADAMTS17 FPKM: 0.882 FPKM | ADCYAP1 FPKM: 3.219 FPKM | ADORA2A FPKM: 1.475 FPKM | AFF2 FPKM: 3.175 FPKM | AGK FPKM: 14.306 FPKM | ALDH1A2 FPKM: 6.66 FPKM | ALOX5AP FPKM: 39.735 FPKM | ANKEF1 FPKM: 2.575 FPKM | ANO8 FPKM: 2.721 FPKM | ANTXR2 FPKM: 55.18 FPKM | APH1B FPKM: 4.206 FPKM | APOBEC3B-AS1 FPKM: 20.386 FPKM | APOBEC3F FPKM: 7.066 FPKM | APOBEC3G FPKM: 9.231 FPKM | APOL1 FPKM: 4.498 FPKM | ARHGAP4 FPKM: 16.216 FPKM | ARHGAP25 FPKM: 2.157 FPKM | ARHGAP31 FPKM: 11.177 FPKM | ARHGEF3 FPKM: 8.674 FPKM | ARPP21 FPKM: 0.7 FPKM | ASB13 FPKM: 2.543 FPKM | ASNS FPKM: 19.026 FPKM | ATHL1 FPKM: 6.014 FPKM | ATP2A3 FPKM: 36.996 FPKM | ATP6V0A4 FPKM: 18.558 FPKM | ATP6V1B2 FPKM: 60.661 FPKM | ATPAF1 FPKM: 10.283 FPKM | AVPR2 FPKM: 1.492 FPKM | B2M FPKM: 1302.512 FPKM | BAHCC1 FPKM: 0.873 FPKM | BCL2A1 FPKM: 51.928 FPKM | BCL2L1 FPKM: 41.852 FPKM | BCL3 FPKM: 17.15 FPKM | BCL6 FPKM: 15.55 FPKM | BCL7A FPKM: 12.277 FPKM | BCL11B FPKM: 3.353 FPKM | BEND6 FPKM: 1.409 FPKM | BIN1 FPKM: 1.968 FPKM | BIRC3 FPKM: 58.303 FPKM | C10orf55 FPKM: 15.779 FPKM | C11orf74 FPKM: 0.392 FPKM | C21orf58 FPKM: 6.073 FPKM | CABP1 FPKM: 1.689 FPKM | CAMK2D FPKM: 6.138 FPKM | CARHSP1 FPKM: 14.562 FPKM | CBFA2T3 FPKM: 11.821 FPKM | CBLB FPKM: 7.757 FPKM | CBS FPKM: 3.916 FPKM | CBX2 FPKM: 2.454 FPKM | CCDC15 FPKM: 2.926 FPKM | CCL3 FPKM: 0.502 FPKM | CCL3L3 FPKM: 0.079 FPKM | CCL20 FPKM: 1.279 FPKM | CCND3 FPKM: 25.396 FPKM | CCNE2 FPKM: 5.206 FPKM | CD1B FPKM: 4.733 FPKM | CD1E FPKM: 3.521 FPKM | CD70 FPKM: 7.606 FPKM | CD82 FPKM: 222.109 FPKM | CD97 FPKM: 21.496 FPKM | CD200 FPKM: 0.094 FPKM | CD274 FPKM: 15.92 FPKM | CDKN1A FPKM: 62.513 FPKM | CDKN2D FPKM: 16.801 FPKM | CECR1 FPKM: 3.984 FPKM | CENPM FPKM: 14.415 FPKM | CEP70 FPKM: 12.745 FPKM | CERKL FPKM: 10.348 FPKM | CFLAR FPKM: 3.022 FPKM | CHEK2 FPKM: 7.751 FPKM | CHPF2 FPKM: 34.939 FPKM | CHPF FPKM: 12.714 FPKM | CHRNA3 FPKM: 3.499 FPKM | CHST12 FPKM: 12.639 FPKM | CNN2 FPKM: 18.455 FPKM | COL27A1 FPKM: 5.729 FPKM | CPD FPKM: 26.602 FPKM | CREB3L2 FPKM: 5.857 FPKM | CREB5 FPKM: 1.966 FPKM | CSF1 FPKM: 2.594 FPKM | CSF2 FPKM: 0.314 FPKM | CXCL8 FPKM: 3.327 FPKM | CXCL11 FPKM: 3.793 FPKM | CXCR4 FPKM: 34.014 FPKM | CYTH1 FPKM: 30.15 FPKM | DBP FPKM: 1.773 FPKM | DCBLD2 FPKM: 15.588 FPKM | DENND5A FPKM: 37.896 FPKM | DNAJB5 FPKM: 19.35 FPKM | DSTYK FPKM: 3.595 FPKM | DTL FPKM: 5.275 FPKM | DTX1 FPKM: 3.245 FPKM | DUSP6 FPKM: 12.914 FPKM | DUSP10 FPKM: 12.142 FPKM | E2F7 FPKM: 4.018 FPKM | ECE1 FPKM: 59.384 FPKM | EFHD2 FPKM: 234.38 FPKM | EGR1 FPKM: 123.294 FPKM | EGR2 FPKM: 9 FPKM | EHBP1L1 FPKM: 5.023 FPKM | EMP1 FPKM: 4.589 FPKM | ETS1 FPKM: 38.627 FPKM | FADS2 FPKM: 48.612 FPKM | FAM64A FPKM: 6.008 FPKM | FAT1 FPKM: 11.964 FPKM | FBLN2 FPKM: 3.01 FPKM | FKBP5 FPKM: 7.791 FPKM | FLI1 FPKM: 10.752 FPKM | FOSL1 FPKM: 12.705 FPKM | FOSL2 FPKM: 2.362 FPKM | FXYD5 FPKM: 42.856 FPKM | FYN FPKM: 15.512 FPKM | GAD1 FPKM: 2.238 FPKM | GFOD1 FPKM: 6.312 FPKM | GFRA1 FPKM: 0.76 FPKM | GKAP1 FPKM: 2.927 FPKM | GLRB FPKM: 1.354 FPKM | GLRX FPKM: 21.013 FPKM | GNG4 FPKM: 7.415 FPKM | GPC2 FPKM: 4.85 FPKM | GPR17 FPKM: 0.181 FPKM | GPR68 FPKM: 11.224 FPKM | GSE1 FPKM: 14.556 FPKM | GTDC1 FPKM: 5.144 FPKM | GXYLT2 FPKM: 4.24 FPKM | GZMB FPKM: 909.046 FPKM | HCAR1 FPKM: 7.943 FPKM | HIVEP3 FPKM: 20.545 FPKM | HLA-A FPKM: 226.558 FPKM | HLA-B FPKM: 160.359 FPKM | HPGD FPKM: 3.392 FPKM | IFIT3 FPKM: 6.682 FPKM | IKZF2 FPKM: 8.132 FPKM | IL2 FPKM: 12.964 FPKM | IL4R FPKM: 12.536 FPKM | IL10RA FPKM: 3.208 FPKM | IL15 FPKM: 3.16 FPKM | IL15RA FPKM: 7.481 FPKM | IL21R FPKM: 5.255 FPKM | IL21R-AS1 FPKM: 3.991 FPKM | IL27RA FPKM: 10.764 FPKM | IQCJ-SCHIP1 FPKM: 1.234 FPKM | IQGAP2 FPKM: 3.477 FPKM | IRF1 FPKM: 152.425 FPKM | IRF2 FPKM: 34.829 FPKM | IRF4 FPKM: 2.092 FPKM | IRF7 FPKM: 21.372 FPKM | ITGA4 FPKM: 31.73 FPKM | ITGAL FPKM: 7.674 FPKM | ITK FPKM: 62.324 FPKM | JAK2 FPKM: 8.45 FPKM | KCNK1 FPKM: 13.139 FPKM | KIAA0101 FPKM: 16.766 FPKM | KIAA0247 FPKM: 8.83 FPKM | KIR3DX1 FPKM: 3.992 FPKM | KLF10 FPKM: 15.364 FPKM | KLF12 FPKM: 4.377 FPKM | KREMEN1 FPKM: 2.958 FPKM | LAIR1 FPKM: 7.19 FPKM | LDLRAD4 FPKM: 4.769 FPKM | LEF1-AS1 FPKM: 2.388 FPKM | LEF1 FPKM: 48.109 FPKM | LGMN FPKM: 1.976 FPKM | LIF FPKM: 0.231 FPKM | LIMS2 FPKM: 4.304 FPKM | LINC00659 FPKM: 9.828 FPKM | LINC01260 FPKM: 7.215 FPKM | LMNA FPKM: 2.786 FPKM | LMO1 FPKM: 0.954 FPKM | LOC653712 FPKM: 2.808 FPKM | LOC100506688 FPKM: 1.704 FPKM | LOC101926963 FPKM: 4.742 FPKM | LOC101927497 FPKM: 10.444 FPKM | LPAR6 FPKM: 4.344 FPKM | LRRC8C FPKM: 11.753 FPKM | LRRC20 FPKM: 2.839 FPKM | LTBP4 FPKM: 9.568 FPKM | LUCATI FPKM: 9.183 FPKM | MAFF FPKM: 16.464 FPKM | MAGEA4 FPKM: 3.775 FPKM | MAL FPKM: 2.026 FPKM | MAMLD1 FPKM: 9.949 FPKM | MAP3K7CL FPKM: 2.03 FPKM | MAST4 FPKM: 5.841 FPKM | MAZ FPKM: 99.474 FPKM | MCM2 FPKM: 23.634 FPKM | MCTP2 FPKM: 3.187 FPKM | METRN FPKM: 1.604 FPKM | MFAP4 FPKM: 0.663 FPKM | MGAT4A FPKM: 8.882 FPKM | MICAL2 FPKM: 1.84 FPKM | MIR22HG FPKM: 8.63 FPKM | MIR3652 FPKM: 567.901 FPKM | MIR6775 FPKM: 21.57 FPKM | MIR6821 FPKM: 25.116 FPKM
